Source: ChEMBL document CHEMBL1681651, “A broad spectrum anticancer nucleoside with selective toxicity against human colon cells in vitro” (2011)

Tests used:
Type in all cases: functional
SK-OV-3 = test: Growth inhibition of human SKOV3 cells assessed as cell growth at 1 uM after 48 hrs by SRB assay; settings: SK-OV-3, 48 h, read-out: Activity
CAKI-1 = test: Growth inhibition of human Caki1 cells assessed as cell growth at 1 uM after 48 hrs by SRB assay; settings: CAKI-1, 48 h, read-out: Activity
NCI/ADR-RES [1] = test: Growth inhibition of human NCI/ADR-RES cells assessed as cell growth at 1 uM after 48 hrs by SRB assay; settings: read-out: Activity
MDA-MB-435 [2] = test: Growth inhibition of human MDA-MB-435 cells assessed as cell growth at 1 uM after 48 hrs by SRB assay; settings: MDA-MB-435, 48 h, read-out: Activity
[3] = Growth inhibition of human […] cells assessed as cell growth at 10 uM after 48 hrs by SRB assay; settings: read-out: Activity
HCT-116 = test: Growth inhibition of human HCT116 cells assessed as cell growth at 10 uM after 48 hrs by SRB assay; settings: HCT-116, 48 h, read-out: Activity
SF-268 = test: Growth inhibition of human SF268 cells assessed as cell growth at 10 uM after 48 hrs by SRB assay; settings: SF-268, 48 h, read-out: Activity
LOX IMVI = test: Growth inhibition of human LOXIMVI cells after 48 hrs by […] growth inhibition assay
SF-539 = test: Growth inhibition of human SF539 cells after 48 hrs by […] growth inhibition assay; settings: SF-539, 48 h
A498 [4] = test: Growth inhibition of human A498 cells after 48 hrs by […] growth inhibition assay; settings: A498, 48 h
T47D = test: Growth inhibition of human T47D cells after 48 hrs by […] growth inhibition assay
CCRF-CEM [5] = test: Growth inhibition of human CCRF-CEM cells assessed as cell growth at 0.1 uM after 48 hrs by SRB assay; settings: read-out: Activity
NCI-H226 = test: Growth inhibition of human NCI-H226 cells assessed as cell growth at 0.1 uM after 48 hrs by SRB assay; settings: NCI-H226, 48 h, read-out: Activity
NCI-H460 [6] = test: Growth inhibition of human NCI-H460 cells assessed as cell growth at 0.1 uM after 48 hrs by SRB assay; settings: NCI-H460, 48 h, read-out: Activity
SK-MEL-2 = test: Growth inhibition of human SK-MEL-2 cells assessed as cell growth at 0.1 uM after 48 hrs by SRB assay; settings: SK-MEL-2, 48 h, read-out: Activity
IGROV-1 = test: Growth inhibition of human IGROV1 cells assessed as cell growth at 0.1 uM after 48 hrs by SRB assay; settings: IGROV-1, 48 h, read-out: Activity
A498 [7] = test: Growth inhibition of human A498 cells assessed as cell growth at 0.1 uM after 48 hrs by SRB assay; settings: A498, 48 h, read-out: Activity
ACHN = test: Growth inhibition of human ACHN cells assessed as cell growth at 0.1 uM after 48 hrs by SRB assay; settings: read-out: Activity
OVCAR-8 = test: Growth inhibition of human OVCAR8 cells assessed as cell growth at 10 uM after 48 hrs by SRB assay; settings: OVCAR-8, 48 h, read-out: Activity
A498 [8] = test: Growth inhibition of human A498 cells assessed as cell growth at 10 uM after 48 hrs by SRB assay; settings: A498, 48 h, read-out: Activity
TK-10 = test: Growth inhibition of human TK10 cells assessed as cell growth at 10 uM after 48 hrs by SRB assay; settings: TK-10, 48 h, read-out: Activity
DU-145 = test: Growth inhibition of human DU145 cells assessed as cell growth at 10 uM after 48 hrs by SRB assay; settings: DU-145, 48 h, read-out: Activity
NCI/ADR-RES [9] = test: Growth inhibition of human NCI/ADR-RES cells assessed as cell growth at 10 uM after 48 hrs by SRB assay; settings: read-out: Activity
[10] = Growth inhibition of human […] cells assessed as cell growth at 100 uM after 48 hrs by SRB assay; settings: read-out: Activity
A549 = test: Growth inhibition of human A549 cells assessed as cell growth at 100 uM after 48 hrs by SRB assay; settings: A549, 48 h, read-out: Activity
NCI-H460 [11] = test: Growth inhibition of human NCI-H460 cells assessed as cell growth at 100 uM after 48 hrs by SRB assay; settings: NCI-H460, 48 h, read-out: Activity
786-0 = test: Growth inhibition of human 786-0 cells assessed as cell growth at 100 uM after 48 hrs by SRB assay; settings: 786-0, 48 h, read-out: Activity
NCI-H522 = test: Growth inhibition of human NCI-H522 cells assessed as cell growth at 1 mM after 48 hrs by SRB assay; settings: NCI-H522, 48 h, read-out: Activity
COLO 205 = test: Growth inhibition of human COLO205 cells assessed as cell growth at 1 mM after 48 hrs by SRB assay; settings: COLO 205, 48 h, read-out: Activity
HCT-15 = test: Growth inhibition of human HCT15 cells assessed as cell growth at 1 mM after 48 hrs by SRB assay; settings: HCT-15, 48 h, read-out: Activity
OVCAR-3 = test: Growth inhibition of human OVCAR3 cells assessed as cell growth at 1 mM after 48 hrs by SRB assay; settings: OVCAR-3, 48 h, read-out: Activity
MDA-MB-435 [12] = test: Growth inhibition of human MDA-MB-435 cells assessed as cell growth at 1 mM after 48 hrs by SRB assay; settings: MDA-MB-435, 48 h, read-out: Activity
CCRF-CEM [13] = test: Growth inhibition of human CCRF-CEM cells assessed as cell growth at 1 uM after 48 hrs by SRB assay; settings: read-out: Activity
Malme-3M = test: Growth inhibition of human MALME-3M cells assessed as cell growth at 1 uM after 48 hrs by SRB assay; settings: read-out: Activity
OVCAR-5 = test: Growth inhibition of human OVCAR5 cells assessed as cell growth at 1 uM after 48 hrs by SRB assay; settings: OVCAR-5, 48 h, read-out: Activity
[14] = read-out: LC50 (the source's name)
[15] = read-out: pLC50 (the source's name) (converted)

Structure (SMILES): CNC(=O)NC[C@H]1O[C@@H](n2cnc3c(NC(=O)Nc4ccccc4)ncnc32)[C@H](O[Si](C)(C)C(C)(C)C)[C@@H]1CC(=O)N(C)OC
- growth at 1 µM (SK-OV-3): 97%
- growth at 1 µM (CAKI-1): 72%
- growth at 1 µM (NCI/ADR-RES [1]): 109%
- growth at 1 µM (MDA-MB-435 [2]): 97%
- growth at 10 µM [3]: 69%
- growth at 10 µM (HCT-116): 89%
- growth at 10 µM (SF-268): 91%
- GI50 (LOX IMVI; read-out: GI50): 7.3 µM
- CC50 (LOX IMVI; [14]): > 100 µM
- TGI (LOX IMVI; read-out: TGI): > 100 µM
- GI50 (LOX IMVI; read-out: pGI50 (converted)): 7.24 µM
- CC50 (LOX IMVI; [15]): > 100 µM
- TGI (LOX IMVI; read-out: pTGI (converted)): > 100 µM
- GI50 (SF-539; read-out: GI50): 22.3 µM
- CC50 (SF-539; [14]): > 100 µM
- TGI (SF-539; read-out: TGI): > 100 µM
- GI50 (SF-539; read-out: pGI50 (converted)): 22.4 µM
- CC50 (SF-539; [15]): > 100 µM
- TGI (SF-539; read-out: pTGI (converted)): > 100 µM
- GI50 (A498 [4]; read-out: GI50): 3.87 µM
- CC50 (A498 [4]; [14]): > 100 µM
- TGI (A498 [4]; read-out: TGI): 40.3 µM
- GI50 (A498 [4]; read-out: pGI50 (converted)): 3.89 µM
- CC50 (A498 [4]; [15]): > 100 µM
- TGI (A498 [4]; read-out: pTGI (converted)): 40.7 µM
- GI50 (T47D; read-out: GI50): 13.9 µM
- CC50 (T47D; [14]): > 100 µM
- TGI (T47D; read-out: TGI): > 100 µM
- GI50 (T47D; read-out: pGI50 (converted)): 13.8 µM
- CC50 (T47D; [15]): > 100 µM
- TGI (T47D; read-out: pTGI (converted)): > 100 µM
- growth at 0.1 µM (CCRF-CEM [5]): 101%
- growth at 0.1 µM (NCI-H226): 103%
- growth at 0.1 µM (NCI-H460 [6]): 96%
- growth at 0.1 µM (SK-MEL-2): 85%
- growth at 0.1 µM (IGROV-1): 89%
- growth at 0.1 µM (A498 [7]): 90%
- growth at 0.1 µM (ACHN): 107%
- growth at 10 µM (OVCAR-8): 103%
- growth at 10 µM (A498 [8]): 87%
- growth at 10 µM (TK-10): 104%
- growth at 10 µM (DU-145): 104%
- growth at 10 µM (NCI/ADR-RES [9]): 105%
- growth at 100 µM [10]: -25%
- growth at 100 µM (A549): 49%
- growth at 100 µM (NCI-H460 [11]): 44%
- growth at 100 µM (786-0): 48%
- growth at 1000 µM (NCI-H522): 31%
- growth at 1000 µM (COLO 205): 1%
- growth at 1000 µM (HCT-15): 37%
- growth at 1000 µM (OVCAR-3): 6%
- growth at 1000 µM (MDA-MB-435 [12]): 36%
- growth at 1 µM (CCRF-CEM [13]): 100%
- growth at 1 µM (Malme-3M): 88%
- growth at 1 µM (OVCAR-5): 98%

Structure (SMILES): CNC(=O)NC[C@H]1O[C@@H](n2cnc3c(NC(=O)Nc4ccccc4)ncnc32)[C@H](O[Si](C)(C)C(C)(C)C)[C@@H]1O[Si](C)(C)C(C)(C)C
- growth at 1 µM (SK-OV-3): 113%
- growth at 1 µM (CAKI-1): 99%
- growth at 1 µM (NCI/ADR-RES [1]): 109%
- growth at 1 µM (MDA-MB-435 [2]): 102%
- growth at 10 µM [3]: 98%
- growth at 10 µM (HCT-116): 102%
- growth at 10 µM (SF-268): 102%
- GI50 (LOX IMVI; read-out: GI50): 1.82 µM
- CC50 (LOX IMVI; [14]): 6.21 µM
- TGI (LOX IMVI; read-out: TGI): 3.36 µM
- GI50 (LOX IMVI; read-out: pGI50 (converted)): 1.82 µM
- CC50 (LOX IMVI; [15]): 6.17 µM
- TGI (LOX IMVI; read-out: pTGI (converted)): 3.39 µM
- GI50 (SF-539; read-out: GI50): 3.07 µM
- CC50 (SF-539; [14]): 94.3 µM
- TGI (SF-539; read-out: TGI): 13 µM
- GI50 (SF-539; read-out: pGI50 (converted)): 3.09 µM
- CC50 (SF-539; [15]): 93.3 µM
- TGI (SF-539; read-out: pTGI (converted)): 12.9 µM
- GI50 (A498 [4]; read-out: GI50): 2.03 µM
- CC50 (A498 [4]; [14]): 19.5 µM
- TGI (A498 [4]; read-out: TGI): 4.96 µM
- GI50 (A498 [4]; read-out: pGI50 (converted)): 2.04 µM
- CC50 (A498 [4]; [15]): 19.5 µM
- TGI (A498 [4]; read-out: pTGI (converted)): 5.01 µM
- GI50 (T47D; read-out: GI50): 2.87 µM
- CC50 (T47D; [14]): > 100 µM
- TGI (T47D; read-out: TGI): 10.3 µM
- GI50 (T47D; read-out: pGI50 (converted)): 2.88 µM
- CC50 (T47D; [15]): > 100 µM
- TGI (T47D; read-out: pTGI (converted)): 10.2 µM
- growth at 0.1 µM (CCRF-CEM [5]): 104%
- growth at 0.1 µM (NCI-H226): 102%
- growth at 0.1 µM (NCI-H460 [6]): 104%
- growth at 0.1 µM (SK-MEL-2): 108%
- growth at 0.1 µM (IGROV-1): 100%
- growth at 0.1 µM (A498 [7]): 92%
- growth at 0.1 µM (ACHN): 107%
- growth at 10 µM (OVCAR-8): 106%
- growth at 10 µM (A498 [8]): 90%
- growth at 10 µM (TK-10): 112%
- growth at 10 µM (DU-145): 109%
- growth at 10 µM (NCI/ADR-RES [9]): 103%
- growth at 100 µM [10]: 5%
- growth at 100 µM (A549): 4%
- growth at 100 µM (NCI-H460 [11]): -74%
- growth at 100 µM (786-0): -83%
- growth at 1000 µM (NCI-H522): -49%
- growth at 1000 µM (COLO 205): -94%
- growth at 1000 µM (HCT-15): 6%
- growth at 1000 µM (OVCAR-3): -50%
- growth at 1000 µM (MDA-MB-435 [12]): -10%
- growth at 1 µM (CCRF-CEM [13]): 109%
- growth at 1 µM (Malme-3M): 98%
- growth at 1 µM (OVCAR-5): 99%

Structure (SMILES): CNC(=O)OC[C@H]1O[C@@H](n2cnc3c(NC(=O)Nc4ccccc4)ncnc32)[C@H](O[Si](C)(C)C(C)(C)C)[C@@H]1O[Si](C)(C)C(C)(C)C
- growth at 10 µM [3]: 88.1%
- growth at 10 µM (HCT-116): 66.7%
- growth at 10 µM (SF-268): 85.2%
- growth at 10 µM (OVCAR-8): 88.8%
- growth at 10 µM (A498 [8]): 98.4%
- growth at 10 µM (TK-10): 96%
- growth at 10 µM (DU-145): 106%
- growth at 10 µM (NCI/ADR-RES [9]): 97.6%
